Measurements from a melting point compilation (Tetko et al.; mined from patent text by program, amines drawn as free bases though some values may be those of a salt).

melting point [°C]	Structure (SMILES)
96.5 to 97.5	CCCCCS(=O)(=O)NC(=O)CCc1ccc(OCCC2(C)OCCO2)cc1Oc1ncc(C(F)(F)F)cc1Cl
179 to 182	CS(=O)(=O)c1ccc(-c2[nH]c(SCc3ccc4ccccc4n3)nc2-c2ccc(F)cc2)cc1
206 to 207	C=C[C@H]1CC(C(=O)O)=C[C@@H](OC(C)C)[C@@H]1NC(C)=O
236 to 237	COc1ccc2nc(-c3cc(C(F)(F)F)nn3-c3ccc(S(N)(=O)=O)cc3)sc2c1
79	O=C(c1cc(F)cc(F)c1)c1cc(F)cc(F)c1
175	Nc1ccccc1Oc1ccccc1-c1ccccc1Oc1ccccc1N
54 to 67	c1ccc(Cn2nnnc2-c2ccccc2)cc1
248 to 250	O=C(CO)NNc1ccnc2c(NC(=O)c3c(Cl)cccc3Cl)cccc12
44 to 44.5	N#Cc1ccc(C(=O)Cl)c(CCl)c1
149 to 152	Cc1ccc2c(C(C)C(N)=O)ccc(C(C)C)cc1-2 (stereo unspecified)
151 to 152	COc1cc(C)c2c(c1OCC(=O)O)CC(C)(c1ccccc1)C2 (stereo unspecified)
175 to 178	O=C(CCCl)c1ccc2c3c1CCCC3C(=O)N2 (stereo unspecified)
218 to 222	O=C(O)c1nc2n(n1)-c1cc(Cl)ccc1N(c1ccc(Cl)cc1Cl)C2
172 to 174	CCOC(=O)C1=C(C)NC(C)=C(C(=O)OCC)C1c1ccccc1/C=C/C(=O)OCC(C)C
167 to 170	CN(C(=O)OC(C)(C)C)c1cnc(-c2ccc(Cl)nc2)s1
105 to 107	c1cc2c3c(c1)nc(SCc1ccncc1)n3CCC2
54 to 56	Cc1cccc(NN)n1
149 to 150	COc1ccccc1N1CCN(CCCOc2ccc(-c3cn4ccccc4n3)cc2)CC1
160 to 162	OCC1CC(n2c(SCc3ccccc3)nc3cc(Cl)c(Cl)cc32)C(O)C1O (stereo unspecified)
74 to 76	COc1ccc2c(c1)Sc1ccc(F)cc1C(O)C2 (stereo unspecified)
113 to 114	CON=C(C(=O)OC)c1ccccc1CSc1nc2ccccc2s1
152 to 154	Cn1nnnc1SCC1(C)SC2C(NC(=O)Cn3cnnn3)C(=O)N2C1C(=O)O (stereo unspecified)
176 to 177	Cc1ncc(CNC(=O)c2sc(-n3cnn(Cc4ccc(F)cc4)c3=O)nc2C)s1

melting point [°C]	Structure (SMILES)
72 to 76	OC(COc1ccc(-c2ccccc2I)cc1)CN1CCCC1 (stereo unspecified)
188 to 190	N#Cc1cc(-c2ccoc2)c2ccc(COc3cc(F)cc(-c4ccc(Cl)cc4Cl)c3)cc2n1
138 to 140	Cc1ccc(S(=O)(=O)NCC(CC(C)C)NS(=O)(=O)c2ccc(C)cc2)cc1 (stereo unspecified)
215	COc1ccc2cc(C#N)c(=O)oc2c1C
84 to 85	COC(=O)CCc1cnoc1-c1ccc2c(c1)OCO2
72 to 73	ClCc1coc(-c2cc(Cl)cs2)n1
122 to 123	CCCOc1cc(CCCOc2c(CC(=O)O)cccc2OC)n(Cc2ccc(C(F)(F)F)cc2)n1
142	CC(C)(C)OC(=O)CC(=O)CO[C@H]1NC(=O)[C@@H]1NC(=O)c1ccccc1
176 to 177	Cc1nc2ccccc2c(NCc2ccccc2)c1C(C)O (stereo unspecified)
208 to 209	Cc1cccc(C)c1C(=O)NCC(=O)N1c2ccccc2N(Cc2ccccc2)C(=O)[C@H]2CCC[C@H]21 (relative stereo)
131	OCc1cccc2nc(-c3ccccc3)oc12
230	Cn1c(-c2ccccc2)c(C2CCC(C(=O)O)(C(=O)O)CC2)c2ccccc21
137 to 138	COc1cc2c(cc1OC)CCCC(C(=O)N1CCNCC1)=C2
107 to 109	CCOC(=O)CCc1cccc2c(=O)c3cc(C(=O)OC)c(OCCCCC=Cc4ccc(OC)cc4)cc3oc12
240 to 242	COC(=O)c1ccc(C(=O)NS(=O)(=O)c2ccc(C(=O)NCCc3ccc(OC)cc3)cc2)cn1
122 to 124	CCCCCCCCc1ccc(OCC(=O)Cn2ccc3cc(C(=O)O)ccc32)cc1
235 to 236	O=P(c1ccccc1)(c1ccccc1)c1cc(P(=O)(c2ccccc2)c2ccccc2)nc(P(=O)(c2ccccc2)c2ccccc2)n1
81 to 85	O=C(Nc1cc(Cl)c(N2CCNCC2)c(Cl)c1)c1ccc(F)c(OCc2cccnc2)c1
122 to 123	CC(C)(C)OC(=O)COC1CCN(C(=O)[C@H](Cc2ccc(OC(C)(C)C)cc2)NC(=O)c2ccc(C#N)cn2)CC1
101 to 103	CN(C)c1cccc(OCC(=O)c2cccc(Cl)c2)c1
153 to 155	CCCCCCCOc1cc2c(cc1C=Cc1ccc(C(=O)O)cc1)C(C)(C)CCC2(C)C
78 to 80	Cc1cc(CCCCCOc2ccc(-c3nccs3)cc2)on1
110 to 112	CC(=O)N1CCc2ccc(C(=O)CCC(=O)N3CCC(c4ccc(Cl)cc4)CC3)cc2CC1

melting point [°C]	Structure (SMILES)
247 to 252	CC(C)(C)c1cc(NC(=O)C2CCCCC2C(=O)O)cc(C(C)(C)C)c1O (stereo unspecified)
85 to 87	CC(C)NC(=O)CN1CCN(CC2CSC3=C(O2)c2ccccc2C(=O)C3=O)CC1 (stereo unspecified)
41 to 43	O=Cc1cccc(-c2ccccn2)n1
99 to 101	COC(=O)c1ccc(-c2ccncc2)cc1
156 to 158	Cc1[nH]nc(Oc2c(Cl)cc(C(F)(F)F)cc2Cl)c1Cl
155 to 156	Cc1cc(-c2nnn(C)n2)cc(C)c1OCCCC(N)=O
61	COC(=O)CCc1ccc(CNC(=O)C2Cc3ccccc3N2S(=O)(=O)c2ccc(-c3cccc(C(F)(F)F)c3)cc2)cc1 (stereo unspecified)
240 to 242	O=C1CCC(N2Cc3cc(CNC(=O)Nc4cc(C(F)(F)F)ccc4Cl)ccc3C2=O)C(=O)N1 (stereo unspecified)
76 to 78	CCC1(C)NC(=O)c2ccccc2O1 (stereo unspecified)
168	COCc1ccc(Oc2cncc3sc(C(N)=O)cc23)cc1
118 to 120	C[C@@H](NC(=O)Nc1ccc(C(C)(C)C)cc1)c1ccc(NS(C)(=O)=O)c(C#C[Si](C)(C)C)c1
174	CC(C)c1cc(C#N)cc(C(=O)Nc2ccn(C)n2)n1
300	O=c1[nH]c2ccccc2nc1-c1ccc(Cl)cc1Cl
67.5 to 68.9	COc1ccc(C(=O)CCCC(=O)C(F)(F)F)cc1
183 to 185	CCOC(=O)C1C(=O)CC(C)(O)C(C(=O)OCC)C1c1ccc2c(C)c(C)oc2c1 (stereo unspecified)
167 to 168	CC(C)(C)OC(=O)C(C#N)=C(NCCCN1CCCCCC1=O)Nc1cc(C(F)(F)F)cc(C(F)(F)F)c1
95 to 96	O=c1ccoc(C(O)c2cccc(F)c2)c1OCc1ccccc1 (stereo unspecified)
62 to 64	CN1CCN(c2ccc(C(=O)NCCCCCCCCCCO[N+](=O)[O-])cn2)CC1
136 to 138	Cc1cc(C2=C(/C=C/[C@H]3C[C@H](O)CC(=O)O3)C(C)(C)CC3(C2)SCCCS3)ccc1F (relative stereo)
177 to 178	CC(C)(C)OCC1CN(c2ccc3cc(O)ccc3c2)C(=O)O1 (stereo unspecified)
120 to 124	COC(=O)CCCc1cc2cc(Cl)ccc2n1S(=O)(=O)c1cccc2cccnc12
60	Cc1ccc(S(=O)(=O)NCCN2C(=O)C3(CCCC3)c3ccccc32)cc1
120 to 122	O=C(NCCCn1cnc(-c2ccccc2)c1)c1ccco1

melting point [°C]	Structure (SMILES)
137 to 139	N#CC(=C1CSc2ccccc2N1)c1ccc(Cl)cc1
66 to 68	COc1ccc2ncc(CO)c(OC(C)C)c2c1
190 to 191	CCCC(CCC)C(=O)N[C@H](C(=O)N[C@H](CO)Cc1c[nH]c2ccccc12)[C@@H](C)CC
95 to 96	CCc1oc(-c2ccc(C(F)(F)F)cc2)cc1C=O
242 to 245	CCCc1nc2c(N)nc3ccc(-c4cccc(NC(C)=O)c4)cc3c2s1
148 to 150	Nc1nc(Cl)c(NC=O)c(N[C@@H]2CC=C(CO)C2)n1
120 to 121	COc1ccc(N2CCN(c3c(C)c(C)c4c(c3C)C(OCc3ccccn3)C(C)(C)O4)CC2)cc1 (stereo unspecified)
150	CC(C)(CCCCOc1ccc(NC(=O)CCCn2ccnc2)cc1)C(=O)O
110 to 112	O=C(CNc1ccccc1)Nc1ccc(Cl)c(Cl)c1
106 to 108	Cc1cccc(C)c1C(=O)OCC(N)=O
167 to 168	O=S(=O)(c1ccc(Cl)cc1)C(c1ccc(C2OCCO2)cn1)c1cc(F)ccc1F (stereo unspecified)
143 to 148	CNCCCn1c(-c2ccc(Br)cc2)csc1=Nc1ccccc1
211 to 214	COc1ccccc1CN1Cc2c(-c3ccccc3)c3cc(C)c(C)cc3c(=O)n2CC1=O
297 to 298	O=C1c2ccc(-c3nnn[nH]3)cc2C(=O)c2cc(N3CCCCC3)ccc21
213 to 214	N#Cc1cccc(C2=Nc3ccc(C#Cc4ccccc4F)cc3NC(=O)C2)c1
144 to 147	CCc1nc(/C=C/c2cn(-c3ccccc3)nc2OCc2ccc(OCc3nc(-c4cccc(-c5nnn[nH]5)c4)oc3C)c(OC)c2)cs1
145	CCCCN1CC2CN(S(=O)(=O)c3ccc(NC(=O)c4ccc(C#N)cc4)cc3)CC(C1)C2(C)C
194	CC(C)CCNC(=O)c1ccccc1-c1ccccc1CNC(=O)Nc1ccccc1
146 to 149	CCNC(=NS(=O)(=O)c1ccc(C#N)cc1)N1CC(CC)C=N1 (stereo unspecified)
134 to 137	C[C@H](NC(=O)c1c(C(=O)O)cccc1[N+](=O)[O-])C(=O)N1CCC[C@H]1C(=O)O
116 to 118	CCCc1c(CSc2nnc(SCC(=O)O)s2)ccc(C(C)=O)c1O

Structure (SMILES)	melting point [°C]
Cc1nn(-c2ccc(C#N)c(Cl)c2)c(C)c1Oc1ccc(C(=O)N2CCOCC2)cc1	156 to 157
CS(=O)CCN1C(=O)CN=C(c2ccccc2)c2cc(Cl)ccc21 (stereo unspecified)	166 to 167
CCNC(=O)Nc1ccc2c(=O)n(CCCCN3CC=C(c4ccccc4)CC3)c(=O)[nH]c2c1	220
CCc1cc(Cc2cc(CC)c(N)c(C)c2Cl)c(Cl)c(C)c1N	115 to 117
CNC(=O)Oc1cccc(NC(=O)CC(C)(OC)OC)c1	139
CN1CCN(c2cccc3c2C=C(C#N)CC3)CC1	104 to 105
